{"source": "patent US20170049100A1", "about": "(priority 2014, published 2017)", "key": {"[1]": {"system": "Phytophthora infestans", "test": "microbe, parasite or virus in culture", "format": "cell-based", "settings": "for EC50: Phytophthora infestans, 120 h"}, "[2]": {"settings": "cited from earlier work"}, "[3]": {"system": "Phytophthora infestans", "format": "in vivo", "settings": "preventive; 3 and 6 I/ha; after incubating for 5 days"}, "[4]": {"system": "Phytophthora infestans", "format": "in vivo", "settings": "applied at the same time as Phytophthora infestans; 5 or 7 days; 0.5-1-3-6 L/ha"}}, "note": "Read-outs that look alike come from different tables or passages of the source.", "data": [{"smiles": "CCCCC(CC)CO", "note": "(centres unmarked) [2-ethyl-hexanol]", "values": [{"measurement": "Effectiveness of 2-ethyl-hexanol (% of control)", "setting": "[1]; 0.000512 μg 2-ethyl-hexanol/mL", "value": "16.1 % of control"}, {"measurement": "Effectiveness of 2-ethyl-hexanol (% of control)", "setting": "[1]; 0.00256 μg 2-ethyl-hexanol/mL", "value": "42.3 % of control"}, {"measurement": "Effectiveness of 2-ethyl-hexanol (% of control)", "setting": "[1]; 0.0128 μg 2-ethyl-hexanol/mL", "value": "60.1 % of control"}, {"measurement": "Effectiveness of 2-ethyl-hexanol (% of control)", "setting": "[1]; 0.064 μg 2-ethyl-hexanol/mL", "value": "71.7 % of control"}, {"measurement": "Effectiveness of 2-ethyl-hexanol (% of control)", "setting": "[1]; 0.32 μg 2-ethyl-hexanol/mL", "value": "79.8 % of control"}, {"measurement": "Effectiveness of 2-ethyl-hexanol (% of control)", "setting": "[1]; 1.6 μg 2-ethyl-hexanol/mL", "value": "82.2 % of control"}, {"measurement": "Effectiveness of 2-ethyl-hexanol (% of control)", "setting": "[1]; 8 μg 2-ethyl-hexanol/mL", "value": "84.6 % of control"}, {"measurement": "EC50", "setting": "[1]", "value": 6.8, "unit": "ng/mL"}, {"measurement": "biodegradable", "setting": "[2]; in 5 days", "value": 100, "unit": "%"}]}, {"smiles": "CCCCCCCCO", "note": "[octanol, octan-1-ol]", "values": [{"measurement": "Effectiveness of octanol (% of control)", "setting": "[1]; 0.000512 μg octanol/mL", "value": "23.6 % of control"}, {"measurement": "Effectiveness of octanol (% of control)", "setting": "[1]; 0.00256 μg octanol/mL", "value": "49.4 % of control"}, {"measurement": "Effectiveness of octanol (% of control)", "setting": "[1]; 0.0128 μg octanol/mL", "value": "72.2 % of control"}, {"measurement": "Effectiveness of octanol (% of control)", "setting": "[1]; 0.064 μg octanol/mL", "value": "84.8 % of control"}, {"measurement": "Effectiveness of octanol (% of control)", "setting": "[1]; 0.32 μg octanol/mL", "value": "92.5 % of control"}, {"measurement": "Effectiveness of octanol (% of control)", "setting": "[1]; 1.6 μg octanol/mL", "value": "93.3 % of control"}, {"measurement": "Effectiveness of octanol (% of control)", "setting": "[1]; 8 μg octanol/mL", "value": "94.0 % of control"}, {"measurement": "EC50", "setting": "[1]", "value": 2.7, "unit": "ng/mL"}, {"measurement": "biodegradable", "setting": "[2]; in 30 days", "value": "more than 70%"}, {"measurement": "intensity of the infection of the potato leaves caused by Phytophthora infestans", "setting": "[3]", "value": "greatly reduces"}, {"measurement": "development of the pathogen on the surface of potato leaves", "setting": "[4]", "value": "completely inhibits"}]}]}
